The values below come from PubChem BioAssay AID1963963 (Molecular Pharmacology Branch, DTP, NCI, 2024).

The test system of this assay is 958667-338-R-J2-PDC tumor spheroids viability. Briefly: Anticancer human tumor 958667-338-R-J2-PDC patient-derived colon adenocarcinoma cell line growth inhibition [PI3K]. Conditions: spheroids with HUVEC and MSC; for viability, T/C: stronger effect = lower value. The method in brief: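 Agents were dosed from a top concentration near clinical Cmax (otherwise 10 microM) in half-log decrements, alone or combined with PI3K inhibitors. The spheroids contain tumor cells plus endothelial (HUVEC) and MSC stroma; viability is measured.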

Setting [1] is: curve of first compound, second compound 0.00316 µM.
The mark [2] stands for this setting: curve of first compound, second compound 0.01 µM.
[3] abbreviates: curve of first compound, second compound 0.0316 µM.
Setting [4] is: curve of first compound, second compound 0.1 µM.
The mark [5] stands for this setting: curve of first compound, second compound 0.316 µM.
[6] abbreviates: curve of first compound, second compound 1 µM.
Where [7] appears, read: second compound 0.00316 µM, first compound 0.0316 µM.
Where [8] appears, read: second compound 0.00316 µM, first compound 0.1 µM.
The mark [9] stands for this setting: second compound 0.01 µM, first compound 0.0316 µM.
Where [10] appears, read: second compound 0.01 µM, first compound 0.1 µM.
[11] abbreviates: second compound 0.0316 µM, first compound 0.0316 µM.
The mark [12] stands for this setting: second compound 0.0316 µM, first compound 0.1 µM.
Where [13] appears, read: second compound 0.1 µM, first compound 0.0316 µM.
The mark [14] stands for this setting: second compound 0.1 µM, first compound 0.1 µM.
[15] abbreviates: second compound 0.316 µM, first compound 0.0316 µM.
Where [16] appears, read: second compound 0.316 µM, first compound 0.1 µM.
The mark [17] stands for this setting: second compound 1 µM, first compound 0.0316 µM.
Where [18] appears, read: second compound 1 µM, first compound 0.1 µM.
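Further: spheroids exposed to compounds for seven days before readout.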

In the case of `CC(Nc1ccc2c(c1)OCCn1cc(N3C(=O)OCC3C(F)F)nc1-2)C(N)=O` (stereo unspecified), the viability, T/C was 100% [middle of 7 runs] (compound 0.01 µM); 96.9% [middle of 7 runs] (compound 0.0316 µM); 80.8% [middle of 7 runs] (compound 0.1 µM); 70.7% [middle of 7 runs] (compound 0.316 µM); 64.9% [middle of 7 runs] (compound 1 µM). Also, where the note is “compound alone, run of 06/12/2023”, the IC50 is above 1 µM.

In the case of `C[C@@H](NC(=O)c1ncnc(N)c1Cl)c1ncc(C(=O)Nc2cc(C(F)(F)F)c(Cl)cn2)s1`, the viability, T/C is 104% [middle of 4 runs] (compound 0.0316 µM); 103% [middle of 4 runs] (compound 0.1 µM); 106% [middle of 4 runs] (compound 0.316 µM); 95.3% [middle of 4 runs] (compound 3.16 µM); 98.6% [middle of 4 runs] (compound 10 µM). For the same compound, the IC50 (curve of compound) is above 10 µM.

Consider `CC(=O)c1c(C)c2cnc(Nc3ccc(N4CCNCC4)cn3)nc2n(C2CCCC2)c1=O` + CC(Nc1ccc2c(c1)OCCn1cc(N3C(=O)OCC3C(F)F)nc1-2)C(N)=O, for which the IC50 is, setting by setting: under setting [1], above 0.1 µM; under setting [2], above 0.1 µM; under setting [3], above 0.1 µM; under setting [4], above 0.1 µM; under setting [5], above 0.1 µM; under setting [6], 0.018 µM. Moreover, the viability, T/C is 96.6% (second compound 0.00316 µM, first compound 0.000316 µM); 107% (second compound 0.00316 µM, first compound 0.001 µM); 101% (second compound 0.00316 µM, first compound 0.00316 µM); 104% (second compound 0.00316 µM, first compound 0.01 µM); 99.1% under setting [7]; 84.3% under setting [8]. The viability, T/C is 107% (second compound 0.01 µM, first compound 0.000316 µM); 95.7% (second compound 0.01 µM, first compound 0.001 µM); 105% (second compound 0.01 µM, first compound 0.00316 µM); 102% (second compound 0.01 µM, first compound 0.01 µM); 107% under setting [9]; 83.8% under setting [10]. The viability, T/C by setting is: (second compound 0.0316 µM, first compound 0.000316 µM) 97.3%; (second compound 0.0316 µM, first compound 0.001 µM) 73.8%; (second compound 0.0316 µM, first compound 0.00316 µM) 78.3%; (second compound 0.0316 µM, first compound 0.01 µM) 90.2%; under setting [11], 98%; under setting [12], 85.3%. Moreover, the viability, T/C is 78.2% (second compound 0.1 µM, first compound 0.000316 µM); 87.4% (second compound 0.1 µM, first compound 0.001 µM); 89.2% (second compound 0.1 µM, first compound 0.00316 µM); 75.2% (second compound 0.1 µM, first compound 0.01 µM); 92.3% under setting [13]; 58.2% under setting [14]. In addition, the viability, T/C by setting is: (second compound 0.316 µM, first compound 0.000316 µM) 61.9%; (second compound 0.316 µM, first compound 0.001 µM) 73%; (second compound 0.316 µM, first compound 0.00316 µM) 62.8%; (second compound 0.316 µM, first compound 0.01 µM) 65.9%; under setting [15], 56.9%; under setting [16], 67.4%. Besides, the viability, T/C reads like this: (second compound 1 µM, first compound 0.000316 µM) 64.5%; (second compound 1 µM, first compound 0.001 µM) 62.8%; (second compound 1 µM, first compound 0.00316 µM) 47.5%; (second compound 1 µM, first compound 0.01 µM) 53.2%; under setting [17], 56.6%; under setting [18], 37%.

Turning to `CC1(C)CCC(Nc2ncc(C(F)(F)F)c(-c3c[nH]c4c(P(C)(C)=O)c(C#N)ccc34)n2)CN1` (stereo unspecified) + CC(Nc1ccc2c(c1)OCCn1cc(N3C(=O)OCC3C(F)F)nc1-2)C(N)=O, the IC50 came out at 4.62 µM under setting [1]; 2.8 µM under setting [2]; 2.55 µM under setting [3]; 4.67 µM under setting [4]; 1.68 µM under setting [5]; 1.64 µM under setting [6]. In addition, the viability, T/C runs as follows: under setting [7], 108%; under setting [8], 85.9%; (second compound 0.00316 µM, first compound 0.316 µM) 79.7%; (second compound 0.00316 µM, first compound 1 µM) 75.2%; (second compound 0.00316 µM, first compound 3.16 µM) 67.8%; (second compound 0.00316 µM, first compound 10 µM) 29.5%. For the same compound, the viability, T/C under setting [9] was 135%; the viability, T/C under setting [10] was 109%; the viability, T/C (second compound 0.01 µM, first compound 0.316 µM) is 76.9%; the viability, T/C (second compound 0.01 µM, first compound 1 µM) is 63.2%; the viability, T/C (second compound 0.01 µM, first compound 3.16 µM) was 67.6%; the viability, T/C (second compound 0.01 µM, first compound 10 µM) is 20.1%. The viability, T/C is, setting by setting: under setting [11], 111%; under setting [12], 108%; (second compound 0.0316 µM, first compound 0.316 µM) 58.2%; (second compound 0.0316 µM, first compound 1 µM) 60.7%; (second compound 0.0316 µM, first compound 3.16 µM) 64.6%; (second compound 0.0316 µM, first compound 10 µM) 25.7%. Besides, the viability, T/C by setting is: under setting [13], 95.2%; under setting [14], 78.6%; (second compound 0.1 µM, first compound 0.316 µM) 71.5%; (second compound 0.1 µM, first compound 1 µM) 75.8%; (second compound 0.1 µM, first compound 3.16 µM) 66.8%; (second compound 0.1 µM, first compound 10 µM) 24.3%. Moreover, the viability, T/C under setting [15] is 78.7%; the viability, T/C under setting [16] was 78.7%; the viability, T/C (second compound 0.316 µM, first compound 0.316 µM) is 53.1%; the viability, T/C (second compound 0.316 µM, first compound 1 µM) was 54%; the viability, T/C (second compound 0.316 µM, first compound 3.16 µM) was 55.9%; the viability, T/C (second compound 0.316 µM, first compound 10 µM) is 26.2%. The viability, T/C by setting is: under setting [17], 86.9%; under setting [18], 66.8%; (second compound 1 µM, first compound 0.316 µM) 67.2%; (second compound 1 µM, first compound 1 µM) 52.8%; (second compound 1 µM, first compound 3.16 µM) 50.8%; (second compound 1 µM, first compound 10 µM) 14.3%.

As usually defined, the viability, T/C is the result in the treated group divided by that in the control group, in per cent. In general, IC50 refers to the concentration needed to halve the response being measured.
